Experimental data from patent US20070048371A1, “Pharmaceutical formulations/composition of guanfacine suitable for single dose form administration daily” (priority 2005, published 2007).
Read-outs that look alike come from different tables or passages of the source.

Assays:
[1] = Example 2: open-label dose-escalation pharmacokinetic and safety study in children and adolescents with ADHD; assay type: in vivo, human; conditions: for AUC(0-t) / AUC(0-inf) / Cmax / Tmax / half-life / Vd/F: both sexes, human, plasma; for Vd/F: read-out: Vz/F
Protocol: Objective: The objective of this study was to assess the pharmacokinetics of controlled-release guanfacine after a single 2 mg dose or multiple doses of 2 mg and 4 mg from Table 2.
Methods: An open-label, dose-escalation study in male and female children (aged 6-12 years) and adolescents (aged 13-17 years) with ADHD. Subjects weighed 25 kg (55 lb) or more but were not considered overweight in the opinion of the investigator. Their electrocardiogram readings (ECGs) were within normal ranges, and their blood pressure measurements were within the 95th percentile for their age, height, and gender. […] Informed consent was given by the patient's parent or guardian.
[…] The dose was then titrated down to 3 mg on days 30 to 32, and 2 mg on days 33 to 35. Pharmacokinetic assessments were made after the single 2 mg dose and after 6 days of repeated 2 mg and 4 mg doses.

[2] = Example 3: Phase I single-dose crossover bioequivalence/dose proportionality study, 1 mg, 2 mg, 4 mg tablets, healthy adult volunteers; assay type: in vivo, human; conditions: human, in vivo; for AUC(0-t): AUC0-last
Protocol: Objectives: The study was designed to assess the bioequivalence of guanfacine 2 mg and 4 mg tablets from table 2 and to investigate the dose proportionality of 1 mg, 2 mg, and 4 mg doses.
Methods: This was a Phase I, randomized, open-label, single-dose, five period, four-treatment crossover design with a separate lead-in period.
Forty-nine (49) healthy adult volunteers completed the study. During period 1, all subjects received a single 1 mg dose administered after and overnight fast. Prior to period 2, subjects were randomly assigned to one of four sequence groups, with 13 subjects per sequence. During treatment periods 2-5, subjects received their assigned treatment of 2 mg or 4 mg. All subjects were to receive two single doses of 2 mg tablets and two single doses of 4 mg tablets during the course of the study. Doses during periods 2-5 were also administered after an overnight fast.

[3] = 28 children and adolescents with ADHD, 2-4 mg qd dose escalation
[4] = po, 2 mg, single 2 mg oral dose, Day 1, adolescents 13-17 yrs, ADHD patients, N = 14
[5] = po, 2 mg, single 2 mg oral dose, Day 1, children 6-12 yrs, ADHD patients, N = 14
[6] = single 2 mg oral dose, Day 1, adolescents 13-17 yrs, ADHD patients, N = 14
[7] = single 2 mg oral dose, Day 1, children 6-12 yrs, ADHD patients, N = 14

N=C(N)NC(=O)Cc1c(Cl)cccc1Cl [guanfacine]
abnormalities on ECGs, hematologic parameters, or serum chemistries [1, 3]: No clinically significant abnormalities
discontinuations due to adverse events [1, 3]: no discontinuations
severity of most AEs [1, 3]: mild to moderate
subjects with somnolence (AE possibly or probably due to treatment) [1, 3]: 93%
subjects judged to have severe somnolence ([1]; 28 children and adolescents with ADHD, 2-4 mg qd dose escalation, 6 subjects): 21%
CL/F ([1]; Day 14, 2 mg once daily oral, adolescents 13-17 yrs, ADHD patients, N = 14): 826 ± 486 mL/min
CL/F ([1]; Day 14, 2 mg once daily oral, children 6-12 yrs, ADHD patients, N = 14): 552 ± 215 mL/min
CL/F ([1]; Day 28, 4 mg once daily oral, adolescents 13-17 yrs, ADHD patients, N = 14): 607 ± 166 mL/min
CL/F ([1]; Day 28, 4 mg once daily oral, children 6-12 yrs, ADHD patients, N = 14): 522 ± 212 mL/min
AUC(0-t) ([1]; oral, 2 mg, dose of 2 mg of guanfacine, fasted patients ages 6-12 suffering from ADHD, read-out: AUC0-last): ~56.9 ng·h/mL
AUC(0-inf) ([1]; oral, 2 mg, dose of 2 mg of guanfacine, fasted patients ages 6-12 suffering from ADHD, read-out: AUC∞): ~65.2 ng·h/mL
Cmax ([1]; oral, 2 mg, dose of 2 mg of guanfacine, fasted patients ages 6-12 suffering from ADHD, read-out: mean Cmax): ~2.55 ng/mL
Tmax ([1]; oral, 2 mg, dose of 2 mg of guanfacine, fasted patients ages 6-12 suffering from ADHD, read-out: median Tmax): ~5 h
AUC(0-t) ([1]; oral, 2 mg, dose of 2 mg of guanfacine, fasted patients ages 13-17 suffering from ADHD, read-out: AUC0-last): ~42.7 ng·h/mL
AUC(0-inf) ([1]; oral, 2 mg, dose of 2 mg of guanfacine, fasted patients ages 13-17 suffering from ADHD, read-out: AUC∞): ~47.2 ng·h/mL
Cmax ([1]; oral, 2 mg, dose of 2 mg of guanfacine, fasted patients ages 13-17 suffering from ADHD, read-out: mean Cmax): ~1.69 ng/mL
Tmax ([1]; oral, 2 mg, dose of 2 mg of guanfacine, fasted patients ages 13-17 suffering from ADHD, read-out: median Tmax): ~5 h
half-life ([1]; oral, 2 mg, measured for the 2 mg formulation, fasted patients ages 6-12 suffering from ADHD): 14.4 ± 2.4 h
half-life ([1]; oral, 2 mg, measured for the 2 mg formulation, fasted patients ages 13-17 suffering from ADHD): 17.9 ± 5.8 h
AUC(0-t) ([1]; po, 2 mg, Day 14, 2 mg once daily oral, adolescents 13-17 yrs, ADHD patients, N = 14, read-out: AUC0-24): 48.2 ± 16.1 ng·h/mL
Cmax ([1]; po, 2 mg, Day 14, 2 mg once daily oral, adolescents 13-17 yrs, ADHD patients, N = 14, read-out: Cmax): 2.86 ± 0.77 ng/mL
Tmax ([1]; po, 2 mg, Day 14, 2 mg once daily oral, adolescents 13-17 yrs, ADHD patients, N = 14, read-out: Tmax): 4.53 h
AUC(0-t) ([1]; po, 2 mg, Day 14, 2 mg once daily oral, children 6-12 yrs, ADHD patients, N = 14, read-out: AUC0-24): 70 ± 28.3 ng·h/mL
Cmax ([1]; po, 2 mg, Day 14, 2 mg once daily oral, children 6-12 yrs, ADHD patients, N = 14, read-out: Cmax): 4.39 ± 1.66 ng/mL
Tmax ([1]; po, 2 mg, Day 14, 2 mg once daily oral, children 6-12 yrs, ADHD patients, N = 14, read-out: Tmax): 4.98 h
half-life [1, 4]: 17.9 ± 5.77 h
AUC(0-t) ([1]; po, 2 mg, single 2 mg oral dose, Day 1, adolescents 13-17 yrs, ADHD patients, N = 14, read-out: AUC0-t): 42.7 ± 12.9 ng·h/mL
AUC(0-inf) ([1]; po, 2 mg, single 2 mg oral dose, Day 1, adolescents 13-17 yrs, ADHD patients, N = 14, read-out: AUC0-∞): 47.3 ± 13.7 ng·h/mL
Cmax ([1]; po, 2 mg, single 2 mg oral dose, Day 1, adolescents 13-17 yrs, ADHD patients, N = 14, read-out: Cmax): 1.69 ± 0.43 ng/mL
Tmax ([1]; po, 2 mg, single 2 mg oral dose, Day 1, adolescents 13-17 yrs, ADHD patients, N = 14, read-out: Tmax): 4.96 h
Vd/F [1, 4]: 1240 L
half-life [1, 5]: 14.4 ± 2.39 h
AUC(0-t) ([1]; po, 2 mg, single 2 mg oral dose, Day 1, children 6-12 yrs, ADHD patients, N = 14, read-out: AUC0-t): 56.9 ± 22 ng·h/mL
AUC(0-inf) ([1]; po, 2 mg, single 2 mg oral dose, Day 1, children 6-12 yrs, ADHD patients, N = 14, read-out: AUC0-∞): 65.2 ± 23.9 ng·h/mL
Cmax ([1]; po, 2 mg, single 2 mg oral dose, Day 1, children 6-12 yrs, ADHD patients, N = 14, read-out: Cmax): 2.55 ± 1.03 ng/mL
Tmax ([1]; po, 2 mg, single 2 mg oral dose, Day 1, children 6-12 yrs, ADHD patients, N = 14, read-out: Tmax): 4.98 h
Vd/F [1, 5]: 766 ± 380 L
AUC(0-t) ([1]; po, 4 mg, Day 28, 4 mg once daily oral, adolescents 13-17 yrs, ADHD patients, N = 14, read-out: AUC0-24): 117 ± 28.4 ng·h/mL
Cmax ([1]; po, 4 mg, Day 28, 4 mg once daily oral, adolescents 13-17 yrs, ADHD patients, N = 14, read-out: Cmax): 7.01 ± 1.53 ng/mL
Tmax ([1]; po, 4 mg, Day 28, 4 mg once daily oral, adolescents 13-17 yrs, ADHD patients, N = 14, read-out: Tmax): 4.97 h
AUC(0-t) ([1]; po, 4 mg, Day 28, 4 mg once daily oral, children 6-12 yrs, ADHD patients, N = 14, read-out: AUC0-24): 162 ± 116 ng·h/mL
Cmax ([1]; po, 4 mg, Day 28, 4 mg once daily oral, children 6-12 yrs, ADHD patients, N = 14, read-out: Cmax): 10.1 ± 7.09 ng/mL
Tmax ([1]; po, 4 mg, Day 28, 4 mg once daily oral, children 6-12 yrs, ADHD patients, N = 14, read-out: Tmax): 5.02 h
linearity of pharmacokinetics ([1]; single 2 mg doses and multiple 2 mg and 4 mg doses, children (6-12 years) and adolescent (13-17 years) ADHD patients): linear
CL/F [1, 6]: 815 ± 214 mL/min
λz [1, 6]: 0.0428 ± 0.0153 h⁻¹
CL/F [1, 7]: 612 ± 252 mL/min
λz [1, 7]: 0.0496 ± 0.0093 h⁻¹
AUC(0-t) ([2]; 1 mg): ~29.3 ng·h/mL
AUC(0-inf) ([2]; 1 mg, AUC∞): ~32.4 ng·h/mL
Cmax ([2]; 1 mg, mean Cmax): ~0.98 ng/mL
Tmax ([2]; 1 mg, median Tmax): ~6 h
half-life ([2]; 1 mg, t1/2): 17.5 ± 3.8 h
AUC(0-t) ([2]; 4 mg): ~120 ng·h/mL
